From US11293024B2, “Antisense antibacterial compounds and methods” (priority 2014, dated 2022)

Test system: P. aeruginosa PAO1 biofilm
Assay: Biofilm prevention in MBEC plate (crystal violet)
Type: cell-based, Pseudomonas aeruginosa
Conditions: 5 μM PPMO, 2 μg/mL PMBN, MHII, 20 hours; one-way ANOVA p<0.0001
Protocol: P. aeruginosa PAO1 (5×10^5 cfu/mL) was grown in MHII media in an MBEC plate for 20 hours either alone or in the presence of 5 μM of the indicated PPMOs, PMBN alone, (RXR)4, or a scrambled PPMO. All conditions contained 2 μg/mL of PMBN unless indicated otherwise. Pegs were processed for crystal violet or visualized by microscopy at 20 hours. […] FIGS. 6B-6D: Spinning Disk confocal microscopy images of 20 hour biofilm treated with (FIG. 6B) No PPMO, (FIG. 6C) 5 μM Scr PPMO #41, (FIG. 6D) 5 μM RpsJ PPMO #14. PAO1 GFP is shown in green and biofilm is shown in red. The biofilm is stained with 200 μg/mL of Concanavalin A, Alexafluor 647 conjugate.
Pseudomonas aeruginosa Biofilm Prevention in MBEC Plate Protocol
• 1. 10 mL of MH is inoculated with a single colony and incubated at 37° C. and ˜250 rpm for about 5 hours. • 2. The sample is centrifuged for 10 minutes at ˜4000 rpm at 4° C., the supernatant is decanted and the pellet resuspended in 10 mL of 150 mM NaCl or PBS. This step is repeated to wash the pellet 3 times. • 3. The sample is resuspended in 10 mL 150 mM NaCl or PBS. • 4. The OD600 of the sample is taken and cfu/mL is calculated. (OD600 usually between 0.65-0.80). • 5. A Bacterial Working Solution (BWS) is made by inoculating 10 mL of MH to 5×10^5 cfu/mL final concentration. • 6. 2 μL/mL of 1 mg/mL stock PMBN is added to the BWS and vortexed 3 times. • 7. 1 mL of BWS is pipetted into each separate Eppendorf tube for each condition that is tested. • 8. An appropriate amount of PPMO is added to each Eppendorf tube and vortexed 3 times. • 9. Outside wells are filled with fresh MH, NaCl, or PBS to keep the outer pegs from drying out. • 10. One column of the MBEC plate is filled with 150 μL per well from each Eppendorf tube (one condition per column). • 11. Pegs are placed into the MBEC plate and the edges covered with a breathable membrane. • 12. The MBEC plate is incubated for 18-20 hours at 37° C. and 110 rpm. Day 2:
1. […] The final OD570 of the 10× dilution of solution should be approximately 0.500 absorbance. […]
2. OD reading: The OD570 for the 96-well plate from step 1e is determined. […]

“PPMO #14: RpsJ PMO GCATTTGACCT, 5′ TEG, 3′ (RXR)4XB CPP” was tested, and the “prevention of biofilm (crystal violet)” value was “statistically significant prevention of biofilm”.
